Data published in the NIST ThermoML archive (doi:10.1021/je034144f).
Numbers after ± are expanded uncertainties.

Settings: Liquid, Ebulliometric method (Recirculating still)

CC#N [acetonitrile]
Settings	vapor or sublimation pressure [kPa]
277.92 K	4.323 ± 0.011
278.62 K	4.49 ± 0.01
281.57 K	5.247 ± 0.012
285.38 K	6.385 ± 0.012
287.67 K	7.165 ± 0.013
290.65 K	8.296 ± 0.013
292.75 K	9.182 ± 0.014
295.78 K	10.6 ± 0.015
300.82 K	13.37 ± 0.016
303.81 K	15.27 ± 0.018
309.64 K	19.64 ± 0.021
315.43 K	24.97 ± 0.024
321.12 K	31.31 ± 0.027
325.02 K	36.39 ± 0.032
331.27 K	45.91 ± 0.036
336.41 K	55.17 ± 0.042
341.18 K	65.07 ± 0.048
345.57 K	75.44 ± 0.05
349.33 K	85.31 ± 0.059
352.88 K	95.59 ± 0.063
354.55 K	100.75 ± 0.068
354.67 K	101.12 ± 0.07
357.56 K	110.61 ± 0.073
360.94 K	122.63 ± 0.079
361.61 K	125.13 ± 0.079
368.97 K	155.33 ± 0.089
371.74 K	168.12 ± 0.099
373.17 K	175.04 ± 0.11
378.81 K	204.59 ± 0.12
384.11 K	235.79 ± 0.14
394.29 K	306.28 ± 0.16
405.24 K	399.5 ± 0.2
415.21 K	502.67 ± 0.24
423.68 K	605.6 ± 0.28
431.12 K	708.99 ± 0.31
437.3 K	804.86 ± 0.35
443.5 K	910.82 ± 0.38
449.6 K	1025.5 ± 0.42
455.74 K	1152 ± 0.46
461.87 K	1290.2 ± 0.51
468.37 K	1450.3 ± 0.55
474.05 K	1602.6 ± 0.6
479.15 K	1749.8 ± 0.65
484.77 K	1923.9 ± 0.7
490.37 K	2110.8 ± 0.76
495.75 K	2303.5 ± 0.81
501.48 K	2523.7 ± 0.88
506.92 K	2748 ± 0.94
512.61 K	2999.2 ± 1
518.01 K	3254.1 ± 1.1
523.15 K	3512.9 ± 1.1
527.79 K	3760.4 ± 1.2
532.08 K	4001.5 ± 1.3
535.03 K	4174.6 ± 1.3
